Experimental data reported in ChEMBL document CHEMBL2321785, “Synthesis and SAR study of new thiazole derivatives as vascular adhesion protein-1 (VAP-1) inhibitors for the treatment of diabetic macular edema” (Bioorg Med Chem, 2013).
The source made the active and inactive calls. The calls are words filed in the database; no cut-off is given here.

What was measured:
[1] = molecular target: T1, Amine oxidase [copper-containing] 3 (Homo sapiens, UniProt Q16853); experiment: Inhibition of human VAP1 expressed in CHO cells using [14C]-benzylamine as substrate incubated for 30 mins prior to substrate addition measured after 1 hr by scintillation spectrophotometric analysis; type: cell-based
T1 sequence (Q16853 whole entry): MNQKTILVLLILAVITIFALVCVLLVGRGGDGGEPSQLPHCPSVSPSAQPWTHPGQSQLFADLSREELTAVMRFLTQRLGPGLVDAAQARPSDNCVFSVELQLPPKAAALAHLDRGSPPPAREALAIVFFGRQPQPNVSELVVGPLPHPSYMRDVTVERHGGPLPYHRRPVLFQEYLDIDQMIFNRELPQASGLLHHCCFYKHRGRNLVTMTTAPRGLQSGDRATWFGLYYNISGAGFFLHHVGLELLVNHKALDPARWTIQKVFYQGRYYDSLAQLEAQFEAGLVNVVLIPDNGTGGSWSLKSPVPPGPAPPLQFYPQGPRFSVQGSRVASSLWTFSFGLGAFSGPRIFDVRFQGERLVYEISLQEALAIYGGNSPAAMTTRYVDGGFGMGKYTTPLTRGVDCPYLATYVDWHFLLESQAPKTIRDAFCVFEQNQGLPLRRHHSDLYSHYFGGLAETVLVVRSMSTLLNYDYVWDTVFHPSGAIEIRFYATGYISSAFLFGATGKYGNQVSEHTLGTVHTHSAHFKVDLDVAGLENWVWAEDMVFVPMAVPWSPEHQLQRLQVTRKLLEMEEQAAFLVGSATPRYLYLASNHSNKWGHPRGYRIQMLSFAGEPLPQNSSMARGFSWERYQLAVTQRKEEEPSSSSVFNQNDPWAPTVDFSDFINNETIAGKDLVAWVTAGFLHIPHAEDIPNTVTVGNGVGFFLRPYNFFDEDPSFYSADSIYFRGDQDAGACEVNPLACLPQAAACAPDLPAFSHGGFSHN

Homo sapiens [2] = organism: Homo sapiens; experiment: Selectivity ratio of IC50 for human MAOB to IC50 for human VAP1
Plasma [3] = experiment: Plasma concentration in sc dosed Wistar rat after 0.5 to 6 hrs by LC-MS analysis; type: ADME, organism-based; details: in vivo
[4] = molecular target: T2, Amine oxidase [flavin-containing] B (Homo sapiens, UniProt P27338); experiment: Inhibition of human MAOB expressed in CHO cells using benzylamine as substrate after 1 hr by fluorometric assay; type: cell-based
T2 sequence (P27338 whole entry): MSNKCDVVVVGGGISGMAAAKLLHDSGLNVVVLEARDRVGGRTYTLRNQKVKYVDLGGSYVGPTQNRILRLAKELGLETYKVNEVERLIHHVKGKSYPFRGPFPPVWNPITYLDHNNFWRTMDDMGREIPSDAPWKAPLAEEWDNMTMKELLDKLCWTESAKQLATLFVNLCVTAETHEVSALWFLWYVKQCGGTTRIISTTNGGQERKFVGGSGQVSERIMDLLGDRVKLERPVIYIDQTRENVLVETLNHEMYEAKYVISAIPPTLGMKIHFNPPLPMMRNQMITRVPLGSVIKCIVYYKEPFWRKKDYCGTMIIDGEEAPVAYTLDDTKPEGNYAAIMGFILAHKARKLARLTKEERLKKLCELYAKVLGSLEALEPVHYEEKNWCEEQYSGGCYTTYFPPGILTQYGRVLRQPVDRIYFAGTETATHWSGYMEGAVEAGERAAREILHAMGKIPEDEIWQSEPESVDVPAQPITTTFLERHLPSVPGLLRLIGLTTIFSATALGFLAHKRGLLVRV

Plasma [5] = experiment: Plasma concentration in Wistar rat at 0.1 mg/kg, sc after 0.5 to 6 hrs by LC-MS analysis; type: ADME, organism-based; design: dose 0.1 mg/kg, route subcutaneous; details: in vivo
Rattus norvegicus [6] = experiment: Inhibition of VAP1 in streptozotocin-induced Wistar rat diabetic model using [14C]-benzylamine as substrate assessed as [14C]-benzylaldehyde formation in plasma at >/= 0.1 mg/kg, sc after 1 hr by liquid scintillation counting analysis; type: functional, organism-based; design: dose 0.1 mg/kg
[7] = molecular target: T3, Amine oxidase [copper-containing] 3 (Rattus norvegicus, UniProt O08590); experiment: Inhibition of rat VAP1 expressed in CHO cells using [14C]-benzylamine as substrate incubated for 30 mins prior to substrate addition measured after 1 hr by scintillation spectrophotometric analysis; type: cell-based
T3 sequence (O08590 whole entry): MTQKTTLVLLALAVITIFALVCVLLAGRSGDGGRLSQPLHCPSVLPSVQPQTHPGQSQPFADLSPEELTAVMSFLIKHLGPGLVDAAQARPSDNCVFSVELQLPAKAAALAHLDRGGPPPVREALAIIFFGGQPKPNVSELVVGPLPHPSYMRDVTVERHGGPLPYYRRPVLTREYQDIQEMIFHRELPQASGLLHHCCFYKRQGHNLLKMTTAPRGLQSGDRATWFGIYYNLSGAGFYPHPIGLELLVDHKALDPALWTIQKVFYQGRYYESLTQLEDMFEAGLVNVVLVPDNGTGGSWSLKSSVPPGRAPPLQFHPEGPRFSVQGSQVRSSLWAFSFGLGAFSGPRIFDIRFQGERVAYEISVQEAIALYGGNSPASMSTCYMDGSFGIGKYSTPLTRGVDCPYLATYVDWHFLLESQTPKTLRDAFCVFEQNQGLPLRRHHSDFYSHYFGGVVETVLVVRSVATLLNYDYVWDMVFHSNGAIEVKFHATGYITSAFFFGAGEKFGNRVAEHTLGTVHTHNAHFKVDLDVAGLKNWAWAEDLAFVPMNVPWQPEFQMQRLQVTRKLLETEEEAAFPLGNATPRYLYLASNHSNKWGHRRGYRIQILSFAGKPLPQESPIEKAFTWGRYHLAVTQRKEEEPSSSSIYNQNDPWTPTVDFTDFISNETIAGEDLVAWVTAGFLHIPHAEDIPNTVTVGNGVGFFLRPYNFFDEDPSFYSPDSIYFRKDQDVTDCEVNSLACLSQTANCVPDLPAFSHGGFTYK

Homo sapiens [8] = organism: Homo sapiens; experiment: Selectivity ratio of IC50 for human DAO to IC50 for human VAP1
[9] = Selectivity ratio of IC50 for human VAP1 to IC50 for rat VAP1
Rattus norvegicus [10] = experiment: Inhibition of VAP1-mediated ocular permeability in streptozotocin-induced Sprague-Dawley rat diabetic model assessed as fluorescein leakage in vitreous at 1 to 10 mg/kg, sc administered daily for 4 weeks post streptozotocin challenge measured 24 hrs post last dose by fluorescence assay; type: functional, organism-based

Compound	IC50 [1] [µM]	also measured
CSC(=N)Nc1ccc(CCc2csc(NC(C)=O)n2)cc1	1.1	
CC(=O)Nc1nc(CCc2ccc(N)cc2)cs1	> 100	
CC(=O)Nc1nc(-c2ccc(CCNC(=N)N)cc2)cs1	0.33	
CC(=O)Nc1nc(Cc2ccc(NC(=N)N)cc2)cs1	42	
CC(=O)Nc1nc(CCc2ccc(CCN)cc2)cs1	5	
CC(=O)Nc1nc(CCc2ccc(NC3=NCCS3)cc2)cs1	3.5	
CC(=O)Nc1nc(CCc2ccc(NC(N)=S)cc2)cs1	> 10	
CC(=O)Nc1nc(CCc2ccc(NC=N)cc2)cs1	0.73	
CCNC(=N)Nc1ccc(CCc2csc(NC(C)=O)n2)cc1	0.68	
N=C(N)Nc1ccc(CCc2csc(N)n2)cc1	22	

More lines, main results first:

IC50 [1] [µM]	Compound	also measured
11	N=C(N)Nc1ccc(CCc2csc(NC(=O)c3ccccc3)n2)cc1	
9.6	CC(=O)Nc1ncc(CCc2ccc(NC(=N)N)cc2)s1	
> 100	CC(=O)Nc1nc(CCc2ccc(NC(=N)N(C)C)cc2)cs1	
15	CC(=O)Nc1cccc(CCc2ccc(NC(=N)N)cc2)c1	
0.23	CC(=O)Nc1nc(CCc2ccc(NC(=N)N)cc2)cs1	Ratio IC50 (Homo sapiens [2]): > 435; Cp (Plasma [3]): Dose-dependent effect; IC50 [4]: > 100 µM; Cp (Plasma [5]): 21.8 ng/mL; inhibition (Rattus norvegicus [6]): Active; IC50 [7]: 0.014 µM; Ratio IC50 (Homo sapiens [8]): > 435; Ratio IC50 [9]: 16; inhibition (Rattus norvegicus [10]): Active
18	CC(=O)Nc1ccc(CCc2ccc(NC(=N)N)cc2)cc1	
0.52	CC(C)C(=O)Nc1nc(CCc2ccc(NC(=N)N)cc2)cs1	
1.1	CC(=O)Nc1nc(CCc2ccc(N=C(N)NC(C)C)cc2)cs1	
8.8	CC(=O)Nc1nc(CCCc2ccc(NC(=N)N)cc2)cs1	
3	CC(=O)Nc1nc(CCc2ccc(NC3=NCCN3)cc2)cs1	
